Source: ChEMBL document CHEMBL1255230, “Chemical inhibitor of nonapoptotic cell death with therapeutic potential for ischemic brain injury” (Nat Chem Biol, 2005)
Active and inactive are the calls of the source. The rule behind the calls is not given here.

Tests used:
U-937 [1] = experiment: Inhibition of apoptosis in human U937 cells assessed as cell viability after 48 hrs by ATP based viability assay in presence of TNFalpha and CHX; assay type: functional
NIH3T3 [2] = experiment: Inhibition of apoptosis in mouse 3T3 cells assessed as cell viability after 24 hrs by ATP based viability assay in presence of TNFalpha and CHX; assay type: functional
[3] = Inhibition of death receptor signaling mediated necroptotic cell death in human U937 cells assessed as cell viability after 48 hrs by ATP based viability assay in presence of TNFalpha and zVAD-fmk; settings: U-937
U-937 [4] = experiment: Inhibition of oxidative stress induced necrosis in human U937 cells after 24 hrs in presence of menadione; assay type: functional, cell-based
[5] = Inhibition of death receptor signaling mediated necroptotic cell death in human Jurkat cells deficient in FADD assessed as decreased levels of PE-conjugated LC3-II (autophagy marker) after 24 hrs by Western blot method in presence of TNFalpha; assay type: cell-based
[6] = Inhibition of death receptor signaling mediated necroptotic cell death in mouse L929 cells assessed as decreased levels of PE-conjugated autophagy marker LC3-II after 24 hrs by Western blot method in presence of TNFalpha; assay type: cell-based
[7] = Inhibition of death receptor signaling mediated necroptotic cell death in mouse 3T3 cells assessed as decreased levels of PE-conjugated autophagy marker LC3-II after 24 hrs by Western blot method in presence of FasL and zVAD-fmk; assay type: cell-based; settings: NIH3T3
[8] = Inhibition of death receptor signaling mediated necroptotic cell death in human Jurkat cells deficient in FADD and expressing RIP kinase assessed as cell viability after 48 hrs by FACS in presence of AP1510, zVAD-fmk; assay type: cell-based
[9] = Inhibition of death receptor signaling mediated necroptotic cell death in human Jurkat cells deficient in FADD and expressing RIP K45M mutant assessed as cell viability after 48 hrs by FACS in presence of AP1510, zVAD-fmk; assay type: cell-based
[10] = Inhibition of death receptor signaling mediated necroptotic cell death in human Jurkat cells deficient in FADD and expressing RIP kinase domain assessed as cell viability after 48 hrs by FACS in presence of AP1510, zVAD-fmk; assay type: cell-based
[11] = Inhibition of death receptor signaling mediated necroptotic cell death in human U937 cell assessed as cell viability after 72 hrs by ATP based viability assay in presence of TNFalpha and zVAD.fmk; settings: U-937
[12] = Inhibition of death receptor signaling mediated necrotic cell death in human Jurkat cell assessed as cell viability after 30 hrs by ATP based viability assay in presence of FasL, CHX, zVAD.fmk
[13] = Inhibition of death receptor signaling mediated necrotic cell death in mouse 3T3 cells assessed as cell viability after 24 hrs by ATP based viability assay in presence of TNFalpha and zVAD.fmk; settings: NIH3T3
[14] = Inhibition of death receptor signaling mediated necrotic cell death in mouse 3T3 cells assessed as cell viability after 24 hrs by ATP based viability assay in presence of FasL and zVAD.fmk; settings: NIH3T3
[15] = Inhibition of death receptor signaling mediated necrotic cell death in rat IEC18 cells assessed as cell viability in presence of TNFalpha and zVAD.fmk; assay type: cell-based
[16] = Inhibition of death receptor signaling mediated necrotic cell death in human HL60 cells assessed as cell viability in presence of TNFalpha and zVAD.fmk; assay type: cell-based; settings: HL-60
[17] = Inhibition of death receptor signaling mediated necroptotic cell death in human Jurkat cell deficient in FADD assessed as cell viability after 30 hrs by ATP based viability assay in presence of TNFalpha
Jurkat [18] = experiment: Induction of proliferative capacity in necroptotic human Jurkat cell deficient in FADD assessed as cell viability; assay type: functional, cell-based
[19] = Inhibition of death receptor signaling mediated necroptotic cell death in human Jurkat cell deficient in FADD assessed as inhibition of mitochondrial dysfunction after 24 hrs by in presence of TNFalpha; assay type: cell-based
Jurkat [20] = experiment: Effect on apoptosis in human Jurkat cell assessed as nuclear fragmentation by electron microscopy in presence of FasL and CHX; assay type: functional, cell-based
Jurkat [21] = experiment: Effect on apoptosis in human Jurkat cell assessed as plasma membrane blebbing by electron microscopy in presence of FasL and CHX; assay type: functional, cell-based
Jurkat [22] = experiment: Inhibition of necrosis in human Jurkat cells assessed as nuclear condensation by bright field microscopy in presence of FasL, CHX and zVAD-fmk; assay type: functional, cell-based
Jurkat [23] = experiment: Inhibition of necrosis in human Jurkat cells deficient in FADD assessed as inhibition of nuclear condensation by bright field microscopy in presence of TNFalpha; assay type: functional, cell-based
Jurkat [24] = experiment: Inhibition of necrosis in human Jurkat cells deficient in FADD assessed as inhibition of organelle swelling by bright field microscopy in presence of TNFalpha; assay type: functional, cell-based
Jurkat [25] = experiment: Inhibition of necrosis in human Jurkat cells deficient in FADD assessed as inhibition of early loss of plasma membrane integrity by bright field microscopy in presence of TNFalpha; assay type: functional, cell-based
Jurkat [26] = experiment: Inhibition of necrosis in human Jurkat cells deficient in FADD assessed as inhibition of appearance of translucent cytosol in presence of TNFalpha; assay type: functional, cell-based
Jurkat [27] = experiment: Effect on ATP level in human Jurkat cells; assay type: functional, cell-based
Jurkat [28] = experiment: Effect on mitochondrial membrane potential in human Jurkat cells; assay type: functional, cell-based
Jurkat [29] = experiment: Effect on plasma membrane integrity in human Jurkat cells; assay type: functional, cell-based
Jurkat [30] = experiment: Effect on changes in cell shape in human Jurkat cells; assay type: functional, cell-based
Jurkat [31] = experiment: Effect on cell cycle in human Jurkat cells assessed as cells in sub-G1 phase; assay type: functional, cell-based
Jurkat [32] = experiment: Effect on cell cycle in human Jurkat cells assessed as cells in G1 phase; assay type: functional, cell-based
Jurkat [33] = experiment: Effect on cell cycle in human Jurkat cells assessed as cells in G2/M phase; assay type: functional, cell-based
Jurkat [34] = experiment: Antiproliferative activity against human Jurkat cells; assay type: functional, cell-based
Jurkat [35] = experiment: Effect on gene expression in human Jurkat cells after 16 hrs by Agilent DNA chip analysis; assay type: functional, cell-based
NIH3T3 [36] = experiment: Effect on microtubule cytoskeleton in mouse 3T3 cells after 24 hrs by anti-tubulin immunofluorescence method in presence of TNFalpha and zVAD-fmk; assay type: functional, cell-based
NIH3T3 [37] = experiment: Effect on morphology of nucleus in mouse 3T3 cells after 24 hrs by TO-PRO-3 staining in presence of TNFalpha and zVAD-fmk; assay type: functional, cell-based
NIH3T3 [38] = experiment: Effect on morphology of golgi apparatus in mouse 3T3 cells after 24 hrs by anti-giantin immunofluorescence in presence of TNFalpha and zVAD-fmk; assay type: functional, cell-based
Jurkat [39] = experiment: Effect on cell cycle in human Jurkat cells deficient in FADD assessed as cells in sub-G1 phase relative to control; assay type: functional
Jurkat [40] = experiment: Effect on cell cycle in human Jurkat cells deficient in FADD assessed as cells in G1 phase relative to control; assay type: functional
Jurkat [41] = experiment: Effect on cell cycle in human Jurkat cells deficient in FADD assessed as cells in S phase relative to control; assay type: functional
Jurkat [42] = experiment: Effect on cell cycle in human Jurkat cells deficient in FADD assessed as cells in sub-G1 phase in presence of TNFalpha relative to control; assay type: functional
Jurkat [43] = experiment: Effect on cell cycle in human Jurkat cells deficient in FADD assessed as cells in G1 phase in presence of TNFalpha relative to control; assay type: functional
Jurkat [44] = experiment: Effect on cell cycle in human Jurkat cells deficient in FADD assessed as cells in S phase in presence of TNFalpha relative to control; assay type: functional

In the case of `CN1C(=O)C(Cc2c[nH]c3ccccc23)NC1=S` (stereo not given) [NECROSTATIN], the inhibition (U-937 [1]) is reported as “inactive”, the inhibition (NIH3T3 [2]) is reported as “inactive” and the inhibition [3] is reported as “Active”. For the same compound, the inhibition (U-937 [4]) was “inactive”, the inhibition [5] was “Active” and the inhibition [6] was “Active”. The inhibition [7] was “Active”, the inhibition [8] was “Active” and the inhibition [9] was “Active”. For the same compound, the inhibition [10] was “Active”, the inhibition [11] was “Dose-dependent effect” and the inhibition [12] was “Active”. For the same compound, the inhibition [13] was “Active”, the inhibition [14] was “Active” and the inhibition [15] was “Active”. For the same compound, the inhibition [16] was “Active”, the IC50 [17] was 494 nM and the inhibition [17] was “Active”. For the same compound, the Activity (Jurkat [18]) was “Active”, the inhibition [19] was “Active” and the Activity (Jurkat [20]) was “inactive”. For the same compound, the Activity (Jurkat [21]) was “inactive”, the inhibition (Jurkat [22]) was “Active” and the inhibition (Jurkat [23]) was “Active”. For the same compound, the inhibition (Jurkat [24]) was “Active”, the inhibition (Jurkat [25]) was “Active” and the inhibition (Jurkat [26]) was “Active”. The Activity (Jurkat [27]) was “inactive”, the Activity (Jurkat [28]) was “inactive” and the Activity (Jurkat [29]) was “inactive”. For the same compound, the Activity (Jurkat [30]) was “inactive”, the Activity (Jurkat [31]) was “inactive” and the Activity (Jurkat [32]) was “inactive”. For the same compound, the Activity (Jurkat [33]) was “inactive”, the Activity (Jurkat [34]) was “inactive” and the Activity (Jurkat [35]) was “inactive”. For the same compound, the Activity (NIH3T3 [36]) was “inactive”, the Activity (NIH3T3 [37]) was “inactive” and the Activity (NIH3T3 [38]) was “inactive”. For the same compound, the Activity (Jurkat [39]) was 0.7%, the Activity (Jurkat [40]) was 41.5% and the Activity (Jurkat [41]) was 45.1%. The Activity (Jurkat [42]) was 0.7%, the Activity (Jurkat [43]) was 43.1% and the Activity (Jurkat [44]) was 44.8%.
